# Laboratory results reported in patent US20150157023A1, “S[…] CONTROL FROM COMBINATIONS OF 2,4-D-CHOLINE AND GLUFOSINATE” (Dow AgroSciences LLC, priority 2013, published 2015).
# Counter-ions that a name gives are not always drawn.
# Test system: AAD12 Soybean (GLXMA)
# Assay: Field crop tolerance trials (% visual injury, chlorosis, growth inhibition)
# Method: These trials were conducted under field conditions in multiple states in the United States, including but not limited to Arkansas, Illinois, Indiana, Minnesota, Mississippi, Nebraska, Ohio, Oklahoma, Texas, South Carolina and South Dakota. […] Treatments were applied with small plot backpack sprayers, using pressurized air or carbon dioxide (CO2) as propellant. Pressure varied from 22-50 pounds per square inch (psi), with spray tips typically of a Flat Fan type applying water diluent at 15 gallons per acre (GPA). Boom sizes varied from 6.3-10 ft in width. Treatments were applied to soybean, cotton, corn or fallow crop land. Weed sizes varied, but all treatments were applied as post-emergence treatments to weeds from 2 leaf to 2 tiller growth stages varying from 2 to 15 inches in height. The weed spectrum included, but was not limited to, Amaranthus palmeri S. Wats. (Palmer amaranth, AMAPA), Conyza canadensis (L.) Cronq. (horseweed, ERICA), Salsola tragus L. (Russian thistle, SASKR) and Sesbania exaltata (hemp sesbania, SEBEX).
# 2,4-D- and glufosinate-tolerant soybeans, corn and cotton and optionally a glyphosate trait in a breeding (CP4 EPSPS) or a molecular stack (2mEPSPS) were used in all tolerance trials.
# The 2,4-D-choline salt formulation was a 456 g ae/L SL. […] All treatments were mixed in water at appropriate formulated product rates to achieve the desired rates as shown based on a unit area of application (hectare). Treatments were rated at 2 to 28 days after application (DAA) as compared to the untreated control plants. The trial sites had naturally occurring populations of weeds. The treated plots and control plots were rated blind at various intervals after application. […]
SMILES,"Mean % crop growth inhibition (7DAA, 1084 g ae/ha) [%]","Mean % crop growth inhibition (15DAA, 1084 g ae/ha) [%]","Mean % crop growth inhibition (7DAA, 2130 g ae/ha) [%]","Mean % crop growth inhibition (14DAA, 2130 g ae/ha) [%]","Mean % crop growth inhibition (15DAA, 2130 g ae/ha) [%]"
"CP(=O)(O)CCC(N)C(=O)O (centres unmarked) [Glufosinate-ammonium, ammonium (3-amino-3-carboxypropyl)(methyl)phosphinate]",14.0,9.8,–,–,–
"O=C(O)COc1ccc(Cl)cc1Cl [2,4-D-Choline salt, 2-hydroxy-N,N,N-trimethylethanaminium 2-(2,4-dichlorophenoxy)acetate]",–,–,1,0,0
